Experiments:
[1] = molecular target: Aurora kinase A (Homo sapiens) (UniProt O14965); assay: Inhibition of Aurora A (unknown origin) at 0.1 uM relative to control
[2] = molecular target: Serine/threonine-protein kinase pim-1 (Homo sapiens) (UniProt P11309); assay: Inhibition of PIM1 (unknown origin) at 0.1 uM relative to control
[3] = molecular target: Mast/stem cell growth factor receptor Kit (Homo sapiens) (UniProt P10721); assay: Inhibition of Kit (unknown origin) at 0.1 uM relative to control
[4] = molecular target: Mitogen-activated protein kinase 9 (Homo sapiens) (UniProt P45984); assay: Inhibition of JNK2 (unknown origin) at 0.1 uM relative to control
[5] = molecular target: Macrophage colony-stimulating factor 1 receptor (Homo sapiens) (UniProt P07333); assay: Inhibition of CSF1R (unknown origin) at 0.1 uM relative to control
[6] = molecular target: Serine/threonine-protein kinase TBK1 (Homo sapiens) (UniProt Q9UHD2); assay: Inhibition of TBK1 (unknown origin) at 0.1 uM relative to control
[7] = molecular target: Tyrosine-protein kinase BTK (Homo sapiens) (UniProt Q06187); assay: Inhibition of BTK (unknown origin) at 0.1 uM relative to control
[8] = molecular target: Mitogen-activated protein kinase kinase kinase 9 (Homo sapiens) (UniProt P80192); assay: Inhibition of MLK1 (unknown origin) at 0.1 uM relative to control
[9] = molecular target: Ephrin type-B receptor 4 (Homo sapiens) (UniProt P54760); assay: Inhibition of EphB4 (unknown origin) at 0.1 uM relative to control
Chain of Ephrin type-B receptor 4 (Homo sapiens) (P54760 whole entry): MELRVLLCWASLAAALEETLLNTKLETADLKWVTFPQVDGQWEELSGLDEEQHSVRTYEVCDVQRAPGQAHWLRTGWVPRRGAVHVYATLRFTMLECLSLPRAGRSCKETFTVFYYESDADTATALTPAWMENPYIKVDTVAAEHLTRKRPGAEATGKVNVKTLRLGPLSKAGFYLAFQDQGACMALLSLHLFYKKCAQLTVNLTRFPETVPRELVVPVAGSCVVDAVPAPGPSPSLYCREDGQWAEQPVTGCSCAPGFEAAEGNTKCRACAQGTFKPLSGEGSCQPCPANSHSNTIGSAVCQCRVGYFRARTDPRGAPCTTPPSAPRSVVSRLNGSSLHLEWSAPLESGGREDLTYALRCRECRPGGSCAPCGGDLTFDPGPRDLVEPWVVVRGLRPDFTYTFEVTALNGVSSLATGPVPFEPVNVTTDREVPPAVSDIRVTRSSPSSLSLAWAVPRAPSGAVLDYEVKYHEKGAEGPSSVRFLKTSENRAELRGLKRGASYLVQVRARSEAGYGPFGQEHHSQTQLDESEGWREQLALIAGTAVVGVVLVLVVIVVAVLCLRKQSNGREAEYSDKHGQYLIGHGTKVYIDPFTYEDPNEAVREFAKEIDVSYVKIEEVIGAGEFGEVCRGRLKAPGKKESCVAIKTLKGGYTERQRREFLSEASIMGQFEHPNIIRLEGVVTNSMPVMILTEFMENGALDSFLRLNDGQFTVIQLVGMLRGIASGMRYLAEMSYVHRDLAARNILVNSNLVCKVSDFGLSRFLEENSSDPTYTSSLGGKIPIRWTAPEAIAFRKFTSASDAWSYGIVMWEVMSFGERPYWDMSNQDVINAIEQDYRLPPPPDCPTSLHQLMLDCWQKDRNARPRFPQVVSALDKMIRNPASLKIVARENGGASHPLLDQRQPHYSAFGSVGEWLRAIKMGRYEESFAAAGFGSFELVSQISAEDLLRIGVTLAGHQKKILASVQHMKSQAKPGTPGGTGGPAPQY

[10] = molecular target: Ephrin type-A receptor 1 (Homo sapiens) (UniProt P21709); assay: Inhibition of EphA1 (unknown origin) at 0.1 uM relative to control
[11] = molecular target: Ephrin type-A receptor 2 (Homo sapiens) (UniProt P29317); assay: Inhibition of EphA2 (unknown origin) at 0.1 uM relative to control
[12] = organism: Homo sapiens; assay: Inhibition of PDGFRalpha V560D mutant (unknown origin) at 0.1 uM relative to control
[13] = molecular target: Tyrosine-protein kinase JAK2 (Homo sapiens) (UniProt O60674); assay: Inhibition of JAK2 (unknown origin) at 0.1 uM relative to control
[14] = molecular target: MAP/microtubule affinity-regulating kinase 3 (Homo sapiens) (UniProt P27448); assay: Inhibition of MARK3 (unknown origin) at 0.1 uM relative to control
[15] = molecular target: Dual specificity tyrosine-phosphorylation-regulated kinase 3 (Homo sapiens) (UniProt O43781); assay: Inhibition of DYRK3 (unknown origin) at 0.1 uM relative to control
[16] = molecular target: Tyrosine-protein kinase ZAP-70 (Homo sapiens) (UniProt P43403); assay: Inhibition of ZAP-70 (unknown origin) at 0.1 uM relative to control
Chain of Tyrosine-protein kinase ZAP-70 (Homo sapiens) (P43403 whole entry): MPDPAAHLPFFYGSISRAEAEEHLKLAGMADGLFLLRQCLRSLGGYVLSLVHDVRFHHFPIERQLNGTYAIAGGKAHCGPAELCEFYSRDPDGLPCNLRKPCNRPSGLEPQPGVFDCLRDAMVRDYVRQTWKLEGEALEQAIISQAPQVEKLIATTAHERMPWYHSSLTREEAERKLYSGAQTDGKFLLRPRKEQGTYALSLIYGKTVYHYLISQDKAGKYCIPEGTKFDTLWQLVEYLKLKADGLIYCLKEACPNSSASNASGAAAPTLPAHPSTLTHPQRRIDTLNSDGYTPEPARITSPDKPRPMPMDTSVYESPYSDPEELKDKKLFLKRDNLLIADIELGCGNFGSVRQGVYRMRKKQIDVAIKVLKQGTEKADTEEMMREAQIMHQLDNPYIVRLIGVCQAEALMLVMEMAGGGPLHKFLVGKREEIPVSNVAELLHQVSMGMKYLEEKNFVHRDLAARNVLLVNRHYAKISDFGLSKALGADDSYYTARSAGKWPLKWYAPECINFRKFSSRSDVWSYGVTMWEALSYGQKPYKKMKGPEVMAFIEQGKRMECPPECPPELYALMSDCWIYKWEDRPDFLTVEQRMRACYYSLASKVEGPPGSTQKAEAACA

[17] = molecular target: Fibroblast growth factor receptor 2 (Homo sapiens) (UniProt P21802); assay: Inhibition of FGFR2 (unknown origin) at 0.1 uM relative to control
[18] = molecular target: Platelet-derived growth factor receptor beta (Homo sapiens) (UniProt P09619); assay: Inhibition of PDGFRbeta (unknown origin) at 0.1 uM relative to control
Chain of Platelet-derived growth factor receptor beta (Homo sapiens) (P09619 whole entry): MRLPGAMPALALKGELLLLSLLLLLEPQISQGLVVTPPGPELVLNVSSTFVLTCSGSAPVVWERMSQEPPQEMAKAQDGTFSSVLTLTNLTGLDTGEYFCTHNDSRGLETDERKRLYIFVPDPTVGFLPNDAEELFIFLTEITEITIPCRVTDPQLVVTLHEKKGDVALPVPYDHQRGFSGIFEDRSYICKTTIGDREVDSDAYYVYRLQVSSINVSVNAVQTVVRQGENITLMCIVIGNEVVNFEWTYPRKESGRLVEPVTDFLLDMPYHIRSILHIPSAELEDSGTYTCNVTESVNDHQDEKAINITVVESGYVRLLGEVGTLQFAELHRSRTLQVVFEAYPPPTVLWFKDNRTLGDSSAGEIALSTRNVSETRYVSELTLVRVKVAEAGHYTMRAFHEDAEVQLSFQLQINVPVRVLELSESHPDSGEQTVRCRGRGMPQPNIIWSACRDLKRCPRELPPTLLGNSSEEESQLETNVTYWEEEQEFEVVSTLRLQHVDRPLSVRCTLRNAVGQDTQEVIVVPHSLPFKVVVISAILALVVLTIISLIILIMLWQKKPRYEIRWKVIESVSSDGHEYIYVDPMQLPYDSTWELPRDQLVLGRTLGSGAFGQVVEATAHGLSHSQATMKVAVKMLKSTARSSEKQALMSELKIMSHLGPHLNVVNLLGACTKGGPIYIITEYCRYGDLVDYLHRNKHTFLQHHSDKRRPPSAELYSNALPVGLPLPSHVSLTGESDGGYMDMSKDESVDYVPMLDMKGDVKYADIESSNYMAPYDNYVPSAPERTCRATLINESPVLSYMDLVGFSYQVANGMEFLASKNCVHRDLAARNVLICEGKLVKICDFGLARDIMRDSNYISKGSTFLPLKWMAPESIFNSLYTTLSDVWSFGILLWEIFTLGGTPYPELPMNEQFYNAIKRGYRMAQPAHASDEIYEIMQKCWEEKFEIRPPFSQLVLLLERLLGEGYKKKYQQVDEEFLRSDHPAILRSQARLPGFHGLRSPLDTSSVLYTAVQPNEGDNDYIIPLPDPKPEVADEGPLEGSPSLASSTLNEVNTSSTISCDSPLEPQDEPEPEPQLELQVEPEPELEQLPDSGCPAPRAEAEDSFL

[19] = molecular target: Fibroblast growth factor receptor 3 (Homo sapiens) (UniProt P22607); assay: Inhibition of FGFR3 (unknown origin) at 0.1 uM relative to control
[20] = molecular target: High affinity nerve growth factor receptor (Homo sapiens) (UniProt P04629); assay: Inhibition of TrkA (unknown origin) at 0.1 uM relative to control
[21] = molecular target: Activin receptor type-1B (Homo sapiens) (UniProt P36896); assay: Inhibition of ACVRB (unknown origin) at 0.1 uM relative to control
[22] = molecular target: Ribosomal protein S6 kinase alpha-6 (Homo sapiens) (UniProt Q9UK32); assay: Inhibition of Rsk4 (unknown origin) at 0.1 uM relative to control
Chain of Ribosomal protein S6 kinase alpha-6 (Homo sapiens) (Q9UK32 whole entry): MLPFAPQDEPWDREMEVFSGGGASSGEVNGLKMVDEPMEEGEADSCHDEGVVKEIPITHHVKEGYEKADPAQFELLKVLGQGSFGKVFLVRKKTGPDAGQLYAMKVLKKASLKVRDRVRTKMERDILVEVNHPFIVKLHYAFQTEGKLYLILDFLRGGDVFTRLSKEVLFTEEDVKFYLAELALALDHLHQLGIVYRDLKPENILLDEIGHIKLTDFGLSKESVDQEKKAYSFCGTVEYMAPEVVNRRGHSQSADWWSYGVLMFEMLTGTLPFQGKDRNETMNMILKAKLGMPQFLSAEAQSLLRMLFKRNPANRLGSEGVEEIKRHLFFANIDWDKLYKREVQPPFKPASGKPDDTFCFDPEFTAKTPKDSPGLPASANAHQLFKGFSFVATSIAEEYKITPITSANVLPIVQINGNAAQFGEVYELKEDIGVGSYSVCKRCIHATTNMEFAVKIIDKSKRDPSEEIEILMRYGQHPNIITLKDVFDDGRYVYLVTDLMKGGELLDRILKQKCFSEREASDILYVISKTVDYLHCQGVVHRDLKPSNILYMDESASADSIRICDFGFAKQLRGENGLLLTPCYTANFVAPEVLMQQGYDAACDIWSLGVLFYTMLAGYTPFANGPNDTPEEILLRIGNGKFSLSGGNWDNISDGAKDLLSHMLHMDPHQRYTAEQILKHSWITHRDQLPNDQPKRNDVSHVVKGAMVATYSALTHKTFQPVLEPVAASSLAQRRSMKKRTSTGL

[23] = molecular target: Serine/threonine-protein kinase Chk1 (Homo sapiens) (UniProt O14757); assay: Inhibition of CHK1 (unknown origin) at 0.1 uM relative to control
[24] = molecular target: Macrophage-stimulating protein receptor (Homo sapiens) (UniProt Q04912); assay: Inhibition of Ron (unknown origin) at 0.1 uM relative to control
[25] = molecular target: Serine/threonine-protein kinase Nek1 (Homo sapiens) (UniProt Q96PY6); assay: Inhibition of NEK1 (unknown origin) at 0.1 uM relative to control
[26] = molecular target: Mitogen-activated protein kinase kinase kinase kinase 2 (Homo sapiens) (UniProt Q12851); assay: Inhibition of GCK (unknown origin) at 0.1 uM relative to control
[27] = molecular target: Serine/threonine-protein kinase B-raf (Homo sapiens) (UniProt P15056); assay: Inhibition of B-Raf (unknown origin) at 0.1 uM relative to control
[28] = molecular target: Inhibitor of nuclear factor kappa-B kinase subunit beta (Homo sapiens) (UniProt O14920); assay: Inhibition of IKK beta (unknown origin) at 0.1 uM relative to control
[29] = molecular target: Receptor-type tyrosine-protein kinase FLT3 (Homo sapiens) (UniProt P36888); assay: Inhibition of Flt3 (unknown origin) at 0.1 uM relative to control
[30] = molecular target: Ribosomal protein S6 kinase alpha-2 (Homo sapiens) (UniProt Q15349); assay: Inhibition of Rsk3 (unknown origin) at 0.1 uM relative to control
[31] = molecular target: Fibroblast growth factor receptor 1 (Homo sapiens) (UniProt P11362); assay: Inhibition of FGFR1 (unknown origin) at 0.1 uM relative to control
[32] = molecular target: Mitogen-activated protein kinase 13 (Homo sapiens) (UniProt O15264); assay: Inhibition of p38delta (unknown origin) at 0.1 uM relative to control
[33] = molecular target: Mitogen-activated protein kinase 8 (Homo sapiens) (UniProt P45983); assay: Inhibition of JNK1alpha1 (unknown origin) at 0.1 uM relative to control
[34] = molecular target: Proto-oncogene tyrosine-protein kinase Src (Homo sapiens) (UniProt P12931); assay: Inhibition of Src (unknown origin) at 0.1 uM relative to control
[35] = molecular target: Tyrosine-protein kinase Blk (Homo sapiens) (UniProt P51451); assay: Inhibition of Blk (unknown origin) at 0.1 uM relative to control
[36] = molecular target: Serine/threonine-protein kinase PAK 2 (Homo sapiens, UniProt Q13177); assay: Inhibition of PAK2 (unknown origin) at 0.1 uM relative to control
Chain of Serine/threonine-protein kinase PAK 2 (Q13177 whole entry): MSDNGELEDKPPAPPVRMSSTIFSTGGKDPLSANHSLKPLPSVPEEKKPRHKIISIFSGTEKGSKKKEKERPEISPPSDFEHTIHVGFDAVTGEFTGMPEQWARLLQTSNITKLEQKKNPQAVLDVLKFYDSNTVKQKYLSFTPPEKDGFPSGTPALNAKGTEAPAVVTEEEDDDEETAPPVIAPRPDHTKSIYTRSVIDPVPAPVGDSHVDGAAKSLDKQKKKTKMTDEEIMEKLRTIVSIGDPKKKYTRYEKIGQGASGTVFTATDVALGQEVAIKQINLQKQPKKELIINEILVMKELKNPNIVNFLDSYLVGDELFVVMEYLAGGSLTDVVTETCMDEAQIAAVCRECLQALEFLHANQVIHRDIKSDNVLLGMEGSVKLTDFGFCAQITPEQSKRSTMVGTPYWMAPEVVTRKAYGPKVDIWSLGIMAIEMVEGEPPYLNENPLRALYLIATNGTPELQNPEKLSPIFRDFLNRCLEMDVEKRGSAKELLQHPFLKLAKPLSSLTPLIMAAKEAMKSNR

[37] = molecular target: Ribosomal protein S6 kinase alpha-3 (Homo sapiens) (UniProt P51812); assay: Inhibition of Rsk2 (unknown origin) at 0.1 uM relative to control
Chain of Ribosomal protein S6 kinase alpha-3 (Homo sapiens) (P51812 whole entry, canonical isoform): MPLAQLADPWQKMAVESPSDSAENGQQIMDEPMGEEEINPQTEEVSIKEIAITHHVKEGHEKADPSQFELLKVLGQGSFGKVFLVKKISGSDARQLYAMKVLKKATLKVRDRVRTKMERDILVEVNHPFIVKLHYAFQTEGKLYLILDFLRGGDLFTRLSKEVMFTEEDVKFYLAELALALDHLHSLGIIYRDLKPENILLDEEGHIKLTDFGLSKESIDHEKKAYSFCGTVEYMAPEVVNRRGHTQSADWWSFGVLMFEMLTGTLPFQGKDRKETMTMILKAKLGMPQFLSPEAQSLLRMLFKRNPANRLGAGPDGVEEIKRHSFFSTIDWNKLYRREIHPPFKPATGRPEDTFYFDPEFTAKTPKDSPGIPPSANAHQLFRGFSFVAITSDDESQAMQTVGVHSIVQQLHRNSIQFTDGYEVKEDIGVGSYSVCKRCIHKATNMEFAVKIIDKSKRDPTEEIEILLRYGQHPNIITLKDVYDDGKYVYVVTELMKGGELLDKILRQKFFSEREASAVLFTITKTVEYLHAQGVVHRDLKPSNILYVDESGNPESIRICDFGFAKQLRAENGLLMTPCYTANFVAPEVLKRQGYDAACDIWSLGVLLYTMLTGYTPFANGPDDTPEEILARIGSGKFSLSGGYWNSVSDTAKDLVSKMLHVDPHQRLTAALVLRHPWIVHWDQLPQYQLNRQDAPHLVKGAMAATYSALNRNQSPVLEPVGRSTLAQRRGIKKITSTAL

[38] = molecular target: Casein kinase I isoform gamma-2 (Homo sapiens) (UniProt P78368); assay: Inhibition of CK1gamma2 (unknown origin) at 0.1 uM relative to control
[39] = molecular target: Myosin light chain kinase 2, skeletal/cardiac muscle (Homo sapiens) (UniProt Q9H1R3); assay: Inhibition of MYLK2 (unknown origin) at 0.1 uM relative to control

Chain of Serine/threonine-protein kinase pim-1 (Homo sapiens) (P11309 whole entry, looked up): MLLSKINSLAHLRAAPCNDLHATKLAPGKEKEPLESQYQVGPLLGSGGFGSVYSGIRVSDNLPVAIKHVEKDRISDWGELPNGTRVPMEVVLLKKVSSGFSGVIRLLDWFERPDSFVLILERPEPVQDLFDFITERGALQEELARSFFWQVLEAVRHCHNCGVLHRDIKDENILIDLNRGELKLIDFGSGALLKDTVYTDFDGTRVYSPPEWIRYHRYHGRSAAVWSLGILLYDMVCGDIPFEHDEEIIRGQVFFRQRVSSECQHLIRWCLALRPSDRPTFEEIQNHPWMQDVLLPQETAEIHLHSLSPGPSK

SMILES	inhibition [1] [%]	inhibition [2] [%]	inhibition [3] [%]	inhibition [4] [%]	inhibition [5] [%]	inhibition [6] [%]	inhibition [7] [%]	inhibition [8] [%]	inhibition [9] [%]	inhibition [10] [%]	inhibition [11] [%]	inhibition [12] [%]	inhibition [13] [%]	inhibition [14] [%]	inhibition [15] [%]	inhibition [16] [%]	inhibition [17] [%]	inhibition [18] [%]	inhibition [19] [%]	inhibition [20] [%]	further results
COCCNc1nc2ccc(C#CC3(O)CCCCC3)cc2n1-c1ccnc(N)n1	10.3	3.8	-5.5	-1	2.5	11.6	0.8	15.4	5.3	5	15	-3.5	3.4	5.5	0.9	2.4	6.8	0.7	7.6	9	inhibition [21]: -0.1%; inhibition [22]: 2.4%; inhibition [23]: -3.5%; inhibition [24]: 0.3%; inhibition [25]: 0.3%; inhibition [26]: 1%; inhibition [27]: 8.2%; inhibition [28]: 6.5%; inhibition [29]: 8.7%; inhibition [30]: 14.9%; inhibition [31]: -4.5%; inhibition [32]: 8.4%; inhibition [33]: 4.1%; inhibition [34]: 1.9%; inhibition [35]: 7.2%; inhibition [36]: 14.9%; inhibition [37]: 11.7%; inhibition [38]: 18.3%; inhibition [39]: -1.5%
CN1CCc2cc(-c3cnc4[nH]cc(C(=O)c5ccccc5Cl)c4c3)ccc2C1	25.9	-2	37	14.8	85.7	4.3	86.3	11.4	78.9	90.7	43.5	66.9	50.3	37	3.8	4.5	55.6	96	45.5	51.6	inhibition [21]: 79.3%; inhibition [22]: 11.9%; inhibition [23]: 19.1%; inhibition [24]: 92.1%; inhibition [25]: 1.5%; inhibition [26]: 69.8%; inhibition [27]: 49%; inhibition [28]: 3.3%; inhibition [29]: 83.4%; inhibition [30]: -6%; inhibition [31]: 83%; inhibition [32]: 5.1%; inhibition [33]: 51%; inhibition [34]: 92.9%; inhibition [35]: 86%; inhibition [36]: 97.7%; inhibition [37]: 6%; inhibition [38]: -1.5%; inhibition [39]: 25.5%

Source: ChEMBL document CHEMBL5678812, “Inhibitors of p21-activated kinases (PAKs)” (J Med Chem, 2015)
